Experiments:
[1] = test system: bile flow; assay: stimulation of bile flow in rats, duodenal infusion; format: in vivo, female albino rats; conditions: 100 mg by duodenal infusion in 4ml emulsion, compared to rats which received only the emulsion
Method: The compounds of formula I-A are active in stimulation of bile flow which results in the dissolution of gall stones. This can be seen from the fact that when 100 mg of N-(3α,12α-dihydroxy-5β-24-norcholanoyl)-taurine was administered by duodenal infusion to female albino rats in a 4ml emulsion of sodium taurocholate in […], the flow of bile was increased 15% during the first 8 hours and 30% during the period of 9 to 15 hours after administration compared to the flow in rats which received only the emulsion without the taurine compound. […] This enabled the production of lymph at a constant rate, the infusion of a bile salt and the simultaneous collection of bile.

[2] = target: T1, rat pancreatic lipase (Rattus norvegicus, UniProt P27657); assay: inhibition of rat pancreatic lipase activity in vitro; format: biochemical; conditions: [14C]-triolein emulsion, pH 8.6, 20 min. at 37° C
T1 sequence (P27657 17-465): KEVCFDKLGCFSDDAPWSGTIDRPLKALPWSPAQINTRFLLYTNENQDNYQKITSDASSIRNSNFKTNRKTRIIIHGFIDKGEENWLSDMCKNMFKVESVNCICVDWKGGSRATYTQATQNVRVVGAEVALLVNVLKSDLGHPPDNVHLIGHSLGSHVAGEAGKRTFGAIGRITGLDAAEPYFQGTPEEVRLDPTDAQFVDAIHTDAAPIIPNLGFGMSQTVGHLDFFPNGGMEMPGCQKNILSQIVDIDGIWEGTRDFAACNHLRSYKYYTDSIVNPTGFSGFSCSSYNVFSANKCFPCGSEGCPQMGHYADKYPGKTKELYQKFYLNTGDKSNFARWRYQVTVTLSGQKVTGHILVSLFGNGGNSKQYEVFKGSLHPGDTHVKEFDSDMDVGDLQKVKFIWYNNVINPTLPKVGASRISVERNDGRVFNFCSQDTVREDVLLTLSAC
Method: Dietary long-chain triglycerides must be hydrolyzed by pancreatic lipase in the duodenum before absorption can occur. […] The capacity of compounds of formula I-C to inhibit rat pancreatic lipase in vitro was investigated by testing the following compounds: The ability of compounds to inhibit rat pancreatic lipase is determined by analyzing the nmoles of free fatty acid [oleic acid] released from [^14 C]-triolein. Compounds of A and B are added to an emulsion consisting of: 200,000 dmp ^14 C-triolein, 7.5 mg triolein, 0.75 mg sodium taurocholate, 15 mg bovine serum albumin and 0.9 ml 0.2 M tris-HCl - 0.15 M NaCl, pH 8.6, per assay. Water and/or pancreatic lipase is added to make an assay volume of 1.0 ml. The emulsion is incubated for 20 min. at 37° C in a shaking water bath. The reaction is stopped by the addition of isopropanol; H2 SO4 (40:1). The lipids are extracted twice with 3 ml volumes of hexane. The liberated fatty acids are extracted with 2 ml of 0.1 N aqueous KOH in 50% methanol. A 1 ml aliquot of the KOH layer is placed in a scintillation vial with 10 ml of 2,5-bis-2-(5-tertiary butyl benzoxazolyl)thiophene. The radioactivity is determined in a scintillation counter. Data are expressed a nmoles free fatty acid [oleic acid] related.

[3] = test system: cholesterol level in the lymph; assay: cholesterol level in thoracic duct lymph of rats after oral administration with 4-14C-cholesterol emulsion; format: in vivo, female albino rats (Charles River); conditions: 100mg orally, compared to control (Na-TC)
Method: The lowering of the cholesterol levels in mammals by the administration of the compound of formula I-B can be seen from the fact that when 100mg of N-(3α,12α-dihydroxyetiocholanoyl)glycine was administered orally to female albino rats, the cholesterol level in the lymph was decreased after administration by 86% over the first 8 hours and 94% over the next 9 to 24 hr. period after administration as compared to the control. In this procedure, female albino rats (Charles River), weighing 300 ± 10 g were kept on a Purina chow diet ad libitum until the time of operation. […] This preparation enabled the production of lymph at a constant rate, the infusion of a bile salt, and the simultaneous collection of bile. All animals received, after operation, a continuous duodenal infusion of sodium taurocholate (Na-TC) in 0.85% NaCl. One day after operation, the rats were given, by stomach intubation, an emulsion containing about 4% triolein, 20 μ C of 4-^14 C-cholesterol (Specific Activity 61.7 mC/mM, 159 μ C/mg), 2 mg of cholesterol, in addition to protein, carbohydrate, and saline. Both the Na-TC and the cholesterol carrier employed gave a single spot on either thin layer or glass fiber paper chromatograph so no further purification was attempted. […] An aliquot of the lipid extract was placed on a small piece of glass fiber paper and counted. […]

[4] = test system: triglyceride absorption; assay: effect on triglyceride absorption in vivo, rise in plasma triglycerides after oral load of corn oil; set-up: species or system rats
Method: The ability of compound I to inhibit the absorption of dietary triglyceride in rats is determined by analyzing the rise in serum triglycerides after an oral load of corn oil. […] In this procedure blood samples (0.4 ml) were collected from the rat tail 0, 2, 4, 6, 8 and 24 hours after compound administration. Each rat is its own control. Plasma samples were analyzed for triglyceride content by the procedure set forth in Kessler and Lederer, Tehnicon Symposium 1965 Automation in Analytical Chemistry Ed L. Skeggs, published Mediad Inc. New York (1966) pp 341. The data in Table I is expressed as mg% change in plasma triglyceride levels compared to zero time control values at each time interval. This change in plasma triglycerides was determined by calculating the difference between the triglyceride level at each time point compared to zero time contol level.

Compound: C[C@H](CC(=O)NCCS(=O)(=O)O)[C@H]1CC[C@H]2[C@@H]3CC[C@@H]4C[C@H](O)CC[C@]4(C)[C@H]3C[C@H](O)[C@]12C [Compound A, N-(3α,12α-dihydroxy-5β-24-norcholanoyl)-taurine]
- increase in flow of bile ([1]; during the first 8 hours after administration): 15%
- increase in flow of bile ([1]; period of 9 to 15 hours after administration): 30%
- Ki [2]: 7 mM

Compound: C[C@H](CC(=O)NCC(=O)O)[C@H]1CC[C@H]2[C@@H]3CC[C@@H]4C[C@H](O)CC[C@]4(C)[C@H]3C[C@H](O)[C@]12C [Compound B, N-(3α,12α-dihydroxy-5β-24-norcholanoyl)glycine]
- Ki [2]: 8 mM

Compound: C[C@]12CC[C@@H](O)C[C@H]1CC[C@@H]1[C@@H]2C[C@H](O)[C@]2(C)[C@@H](C(=O)NCC(=O)O)CC[C@@H]12 [N-(3α,12α-dihydroxyetiocholanoyl)glycine]
- decrease of cholesterol level in the lymph (4-14C-cholesterol, % decrease over the control) ([3]; first 8 hours after administration): 86%
- decrease of cholesterol level in the lymph (4-14C-cholesterol, % decrease over the control) ([3]; next 9 to 24 hr. period after administration): 94%
- ability to inhibit absorption of triglyceride ([4]; 1.1 m moles/kg orally 15 minutes before oral corn oil, 24 hour fasted rats): inhibit absorption of triglyceride
- Change in Plasma Triglyceride Levels, 4 hr ([4]; 1.1 m moles/kg orally 15 minutes before oral corn oil, 24 hour fasted rats, 4 hr vs zero time, Control 98 ± 31): 107 ± 17 mg %
- Change in Plasma Triglyceride Levels, 6 hr ([4]; 1.1 m moles/kg orally 15 minutes before oral corn oil, 24 hour fasted rats, 6 hr vs zero time, Control 161 ± 28): 130 ± 17 mg %
- Change in Plasma Triglyceride Levels, 8 hr ([4]; 1.1 m moles/kg orally 15 minutes before oral corn oil, 24 hour fasted rats, 8 hr vs zero time, Control 391 ± 58): 167 ± 22 mg %
- Change in Plasma Triglyceride Levels, 24 hr ([4]; 1.1 m moles/kg orally 15 minutes before oral corn oil, 24 hour fasted rats, 24 hr vs zero time, Control 130 ± 36): 46 ± 5 mg %
- Change in Plasma Triglyceride Levels, 2 hr ([4]; po): 29 ± 3 mg %

Source: US4104285A, “Taurine and glycine derivatives” (Hoffmann-La Roche Inc., priority 1977, dated 1978)
